The values below are quoted from earlier work in patent US9398745B2, “Organic composition for protection of crops against black frost and the method for its application” (priority 2014, dated 2016).

This data set concerns animals. The following applies: tests performed on animals.

SMILES strings stand for the structures.

Regarding `CC(O)CO` (stereo not shown) [1,2 propanediol], the toxicity result is on record as “low toxicity”.
